Source: US20250179016A1, “AMORPHOUS MELANOCORTIN-4 RECEPTOR AGONIST” (LG CHEM, LTD., priority 2020, published 2025)

Legend:
[1] = Stability assessment: storage of the solid sample, then HPLC analysis; assay type: physicochemical; conditions: in % (unit assumed); for Stability result (HPLC analysis), Open ACC: open state, accelerated condition (40° C., 75% RH); for Stability result (HPLC analysis), Closed STR: sealed state, harsh condition, oven at 80° C.
Experimental: About 10-30 mg of the sample was stored for 4 weeks in an open state under the accelerated condition (40° C., 75% RH) or in a sealed state under the harsh condition in an oven at 80° C.

[2] = as above; assay type: physicochemical; conditions: in % (unit assumed)

For `CC(C)C(=O)N([C@H]1C[C@@H](C(=O)N2CCOCC2)N(C(=O)[C@@H]2CN(C(C)(C)C)C[C@H]2c2ccc(Cl)cc2)C1)[C@H]1CC[C@@H](C)CC1.Cl` [Example 1, N-((3S,5S)-1-((3S,4R)-1-(tert-butyl)-4-(4-chlorophenyl)pyrrolidine-3-carbonyl)-5-(morpholine-4-carbonyl)pyrrolidin-3-yl)-N-((1s,4R)-4-methylcyclohexyl)isobutyramide hydrochloride], the “Stability result (HPLC analysis), Open ACC” value (“Stability result … Open ACC” for short) ([1]; Day 3) was 97.95, the “Stability result (HPLC analysis), Closed STR” value (from here on “Stability result … Closed STR”) ([1]; Day 3) was 97.94 and the “Stability result (HPLC analysis)” value ([1]; Initial) was 97.94. For the same compound, the “Stability result … Open ACC” value ([1]; Week 1) was 98.04, the “Stability result … Closed STR” value ([1]; Week 1) was 97.83 and the “Stability result … Open ACC” value ([1]; Week 2) was 98.04. The “Stability result … Closed STR” value ([1]; Week 2) was 97.88, the “Stability result … Open ACC” value ([1]; Week 4) was 97.68 and the “Stability result … Closed STR” value ([1]; Week 4) was 97.10. For the same compound, the “Stability result (HPLC analysis), Closed RT” value ([2]; Week 2, stored at room temperature) was 97.86 and the “Stability result (HPLC analysis), Closed RT” value ([2]; Week 4, stored at room temperature) was 97.27.
